Experimental data reported in US20240174611A1 (Rappta Therapeutics Oy, priority 2021, published 2024).

Tested on: LNCaP cells
Assay: LNCaP cell viability assay (MTS)
Type: cell-based
Conditions: Homo sapiens, LNCaP, 48 h, LNCaP cell line, 48 hours treatment
Description: LNCaP cell line was used for the cell viability assay. LNCaP cells were plated in 96-well plates at a density of 5000 cells per well. After 24 hours of plating, the cells were treated with increasing doses of compound 1-100 ranging from 1 μM to 80 μM. Relative cell numbers were analyzed after 48 hours using 3-(4,5-dimethylthiazol-2-yl)-5-(3-carboxymethoxyphenyl)-2-(4-sulfophenyl)-2H-tetrazolium (MTS) assay (Promega) according to the manufacturer's instructions.
The cell viability data was analyzed with GraphPad Prism software. The values were log transformed and analyzed with non-linear regression (curve-fit) using log(inhibitor) vs. response—variable slope (four parameters) and constraining the bottom to equal zero. Unless otherwise indicated, the GI50 values provided in Table 35 correspond to the LNCaP cell viability assays.

| Structure (SMILES) | GI50 |
| --- | --- |
| COc1ccc(C2(NS(=O)(=O)c3ccc(OC(F)(F)F)cc3)CCOCC2)cc1F [Compound 29, N-(4-(3-fluoro-4-methoxyphenyl)tetrahydro-2H-pyran-4-yl)-4-(trifluoromethoxy)benzene-sulfonamide] | 39 µM |
| COc1ccc(Cl)cc1N1CCC(NS(=O)(=O)c2ccc(OC(F)(F)F)cc2)C1 (centres unmarked) [Compound 2, N-(1-(5-chloro-2-methoxyphenyl)pyrrolidin-3-yl)-4-(trifluoromethoxy)benzene-sulfonamide] | 67.4 µM |
| O=S(=O)(NC1(c2ccc(Cl)c(Cl)c2)CC1)c1ccc(OC(F)(F)F)cc1 [Compound 89, N-(1-(3,4-dichlorophenyl)cyclopropyl)-4-(trifluoromethoxy)benzenesulfonamide] | 46.6 µM |
| CC1CC(NS(=O)(=O)c2ccc(OC(F)(F)F)cc2)CCC1(C)C (centres unmarked) [Compound 8, 4-(trifluoromethoxy)-N-(3,4,4-trimethylcyclohexyl)benzene-sulfonamide] | 73.3 µM |
| O=S(=O)(NC1CCCCC1Oc1ccc(F)cc1)c1ccc(OC(F)(F)F)cc1 (centres unmarked) [Compound 7, N-(2-(4-fluorophenoxy)cyclohexyl)-4-(trifluoromethoxy)benzene-sulfonamide] | 65.9 µM |
| O=S(=O)(NC1(c2ccccc2)CCCNC1)c1ccc(OC(F)(F)F)cc1 (centres unmarked) [Compound 90, N-(3-phenylpiperidin-3-yl)-4-(trifluoromethoxy)benzenesulfonamide] | 48.9 µM |
| O=S(=O)(NC1CCC2CN(Cc3ccccc3)CC21)c1ccc(OC(F)(F)F)cc1 (centres unmarked) [Compound 22] | 70 µM |
| O=S(=O)(NC1Cc2[nH]ncc2C(C(F)(F)F)C1)c1ccc(OC(F)(F)F)cc1 (centres unmarked) [Compound 26] | 53 µM |
| O=S(=O)(NC1CCCN(c2ccc(Cl)c(Cl)c2)C1)c1ccc(OC(F)(F)F)cc1 (centres unmarked) [Compound 5, N-(1-(3,4-dichlorophenyl)piperidin-3-yl)-4-(trifluoromethoxy)benzene-sulfonamide] | 52.8 µM |
| CC(C)(C)OC(=O)N1CCC(NS(=O)(=O)c2ccc(OC(F)(F)F)cc2)(c2ccc(Cl)cc2)CC1 [Compound 53, tert-butyl 4-(4-chlorophenyl)-4-((4-(trifluoromethoxy)phenyl)sulfonamido)piperidine-1-carboxylate] | 16.3 µM |
| CN=S(=O)(NC1(c2ccc(Cl)cc2)CCNC1)c1ccc(OC(F)(F)F)cc1 (centres unmarked) [Compound 68, N-(3-(4-chlorophenyl)pyrrolidin-3-yl)-N′-methyl-4-(trifluoromethoxy)benzenesulfonimidamide] | 27.2 µM |
| O=S(=O)(NC1(c2ncc(Cl)s2)CCNCC1)c1ccc(OC(F)(F)F)cc1 [Compound 73, N-(4-(5-chlorothiazol-2-yl)piperidin-4-yl)-4-(trifluoromethoxy)benzenesulfonamide] | 56.4 µM |
| O=S(=O)(NC1(c2ccc(Cl)cc2)CCNC1)c1ccc(Oc2ccc(C(F)(F)F)cc2)cc1 (centres unmarked) [Compound 57, N-(3-(4-chlorophenyl)pyrrolidin-3-yl)-4-(4-(trifluoromethyl)phenoxy)benzenesulfonamide] | 10.6 µM |
| O=S(=O)(NC1(c2ccc(Cl)c(F)c2)CNC1)c1ccc(OC(F)(F)F)cc1 [Compound 58, N-(3-(4-chloro-3-fluorophenyl)azetidin-3-yl)-4-(trifluoromethoxy)benzenesulfonamide] | 23.2 µM |
| CCC1CC1(NS(=O)(=O)c1ccc(OC(F)(F)F)cc1)c1cccc(C)c1 (centres unmarked) [Compound 28, N-(2-ethyl-1-(m-tolyl)cyclopropyl)-4-(trifluoromethoxy)benzene-sulfonamide] | 62 µM |
| NS(=O)(=NC1(c2ccc(Cl)cc2)CCNCC1)c1ccc(OC(F)(F)F)cc1 (centres unmarked) [Compound 96, N′-(4-(4-chlorophenyl)piperidin-4-yl)-4-(trifluoromethoxy)benzenesulfonimidamide] | 13.7 µM |

| Structure (SMILES) | GI50 |
| --- | --- |
| O=S(=O)(NC1(c2ccc(F)cc2)CCNCC1)c1ccc(OC(F)(F)F)cc1 [Compound 59, N-(4-(4-fluorophenyl)piperidin-4-yl)-4-(trifluoromethoxy)benzenesulfonamide] | 18.1 µM |
| CC(C)Oc1ccc(S(=O)(=O)NC2(c3ccc(Cl)cc3)CCNC2)cn1 (centres unmarked) [Compound 80, N-(3-(4-chlorophenyl)pyrrolidin-3-yl)-6-isopropoxypyridine-3-sulfonamide] | 50 µM |
| O=S(=O)(NC1CCCCCC1c1ccccc1)c1ccc(OC(F)(F)F)cc1 (centres unmarked) [Compound 13, N-(2-phenylcycloheptyl)-4-(trifluoromethoxy)benzene-sulfonamide] | 55.6 µM |
| O=S(=O)(NC1(c2ccccc2)CCNCC1)c1ccc(OC(F)(F)F)cc1 [Compound 50, N-(4-phenylpiperidin-4-yl)-4-(trifluoromethoxy)benzenesulfonamide] | 23.3 µM |
| CC1(C)C[C@H](NS(=O)(=O)c2ccc(OC(F)(F)F)cc2)c2cc(F)ccc2O1 [Compound 27, (S)-N-(6-fluoro-2,2-dimethylchroman-4-yl)-4-(trifluoromethoxy)benzene-sulfonamide] | 12 µM |
| O=S(=O)(NC1(c2ccccc2)CCNC1)c1ccc(OC(F)(F)F)cc1 (centres unmarked) [Compound 36, N-(3-phenylpyrrolidin-3-yl)-4-(trifluoromethoxy)benzene-sulfonamide] | 41.9 µM |
| CC(C)Oc1ccc(S(=O)(=O)NC2(c3ccc(Cl)cc3)CCNCC2)cn1 [Compound 67, N-(4-(4-chlorophenyl)piperidin-4-yl)-6-isopropoxypyridine-3-sulfonamide] | 18.2 µM |
| CCOC(=O)C1(NS(=O)(=O)c2ccc(OC(F)(F)F)cc2)CCc2ccccc21 (centres unmarked) [Compound 20] | 60 µM |
| O=S(=O)(NC1(c2ccc(Cl)cc2)CCNCC1)c1ccc(C(F)(F)F)cc1 [Compound 97, N-(4-(4-chlorophenyl)piperidin-4-yl)-4-(trifluoromethyl)benzenesulfonamide] | 11.6 µM |
| Cc1cc(C2(NS(=O)(=O)c3ccc(OC(F)(F)F)c(N)c3)CCNC2)ccc1F (centres unmarked) [Compound 93, 3-amino-N-(3-(4-fluoro-3-methylphenyl)pyrrolidin-3-yl)-4-(trifluoromethoxy)benzenesulfonamide] | 65.5 µM |
| O=S(=O)(NC1(c2ccc(Cl)cn2)CCNCC1)c1ccc(OC(F)(F)F)cc1 [Compound 87, N-(4-(5-chloropyridin-2-yl)piperidin-4-yl)-4-(trifluoromethoxy)benzenesulfonamide] | 46.6 µM |
| O=S(=O)(NC1(c2ccc(Cl)cc2F)CCNCC1)c1ccc(OC(F)(F)F)cc1 [Compound 94, N-(4-(4-chloro-2-fluorophenyl)piperidin-4-yl)-4-(trifluoromethoxy)benzenesulfonamide] | 15.8 µM |
| CCC(C(=O)N1CCC(NS(=O)(=O)c2ccc(OC(F)(F)F)cc2)CC1)c1ccccc1 (centres unmarked) [Compound 17, N-(1-(2-phenylbutanoyl)piperidin-4-yl)-4-(trifluoromethoxy)benzene-sulfonamide] | 58 µM |
| O=S(=O)(NC1(c2ccc(Cl)c(Cl)c2)CCNCC1)c1ccc(OC(F)(F)F)cc1 [Compound 49, N-(4-(3,4-dichlorophenyl)piperidin-4-yl)-4-(trifluoromethoxy)benzenesulfonamide] | 6.75 µM |
| CC(C)C1N(Cc2ccccc2)CC12C[C@@H](O)[C@H](NS(=O)(=O)c1ccc(OC(F)(F)F)cc1)C2 (mixture of isomers) [Compound 31] | 45 µM |
| CC(C)(C)OC(=O)N1CCC(CF)(NS(=O)(=O)c2ccc(OC(F)(F)F)cc2)C1 (centres unmarked) [Compound 32] | 30 µM |
